Data on five molecules can be found in patent publication US9492542B2, “Pharmaceutical composition for the treatment of MCP-1 mediated inflammatory diseases” (priority 2009, dated 2016).

Structures are written as SMILES. Read-outs that look alike come from different tables or passages of the source.

Assay [1] concerns MCP-1. Briefly: Effect on LPS-induced MCP-1 plasma levels in mice (Example 1, ELISA). To be noted: calculated versus vehicle group; same doses and schedule as E1.
Description: MCP-1 plasma levels were measured by commercially available ELISA kit. Drugs were intraperitoneally (ip) administered 30 minutes before LPS injection (50 μg/mouse, ip) to groups of eight mice. […] The percent reduction was calculated versus the vehicle group.
Assay [2] can be described thus: Effect on proteinuria in human: Urinary Albumin Excretion (UAE) in Type 2 diabetes patients (Example 2). Type of assay: in vivo. To be noted: 8 weeks, bindarit 600 mg twice a day, irbesartan 300 mg once a day. The text has this: Irbesartan is a well known angiotensin receptor blockers (ARB). The treatment lasted 8 weeks.
Assay [3] has as its system MCP-1. To be noted: calculated versus vehicle group; same doses and schedule as E6.
Description: MCP-1 plasma levels were measured by commercially available ELISA kit.
Drugs were intraperitoneally (ip) administered 30 minutes before LPS injection (50 μg/mouse, ip) to groups of six mice. At 3 hours following
LPS injection, mice were anesthetized and blood was withdrawn by intracardiac puncture in order to obtain plasma (heparinized samples) to be used to measure MCP-1 levels.
The percent reduction was calculated versus the vehicle group.

As to `CCCCc1nc(Cl)c(CO)n1Cc1ccc(-c2ccccc2-c2nn[nH]n2)cc1` [Losartan, losartan], the “MCP-1 plasma level % reduction” value in the assay with MCP-1 [1] is 13%.
As to `CCCCC1=NC2(CCCC2)C(=O)N1Cc1ccc(-c2ccccc2-c2nnn[nH]2)cc1` [Placebo + Irbesartan, irbesartan], the “Patient percentage with a UAE reduction equal to or higher than 25% with respect to basal value” in assay [2] is given as 27.5%.
In the case of `CCOC(=O)[C@H](CCc1ccccc1)N[C@@H](C)C(=O)N1[C@H](C(=O)O)C[C@@H]2CCC[C@@H]21` [Ramipril, ramipril], the “MCP-1 plasma level % reduction” value with MCP-1 [1] was 30%.
Take `CCC(C)(C)C(=O)O[C@H]1C[C@@H](C)C=C2C=C[C@H](C)[C@H](CC[C@@H]3C[C@@H](O)CC(=O)O3)[C@H]21` [Simvastatin, simvastatin]: the “MCP-1 plasma level % reduction” value with MCP-1 [1] is 7%.
Turning to `COc1ccc(CCN(C)CCCC(C#N)(c2ccc(OC)c(OC)c2)C(C)C)cc1OC` (centres unmarked) [Verapamil, verapamil], the “MCP-1 plasma level % reduction” value in the assay on MCP-1 [3] is 26%.
